The values that follow come from publication PMC3365614 (Cancer Chemotherapy and Pharmacology, 2012).

Each structure is given as a SMILES string.

For data set [1] the following is noted: for Plasma concentration, effect of flavopiridol: immediately prior to (24 h) vs end of 1-hr flavopiridol infusion (25 h) on day 2.
The format of data set [2] is in vivo, human.
The conditions of data set [3]: 1-hr infusions of flavopiridol as a single agent; cited from earlier work.
Data set [4] deals with human serum proteins. Conditions: cited from earlier work.
Data set [5] deals with ABCG2. Conditions: cited from earlier work.

In the case of `Cc1ccc(NC(=O)c2ccc(CN3CCNCC3)cc2)cc1Nc1nccc(-c2cccnc2)n1` [CGP74588], the “Plasma concentration, effect of flavopiridol” value in data set [1] is listed as “increase”. The “AUC of the metabolite CGP74588, effect of flavopiridol” value in data set [1] (presence vs absence of flavopiridol, P=0.84) was “not significantly affected”.

As for `CN1CC[C@H](c2c(O)cc(O)c3c(=O)cc(-c4ccccc4Cl)oc23)[C@H](O)C1` [flavopiridol], in data set [2] (1-hr infusions of 30, 45 or 60 mg/m^2 with 400 or 600 mg/day imatinib, cycle 1), the “mean flavopiridol clearance (per body surface area)” value is 13.2 L/hr/m^2. In data set [2] (human, plasma, intravenous), the clearance was 427 mL/min and the half-life is 2.33 ± 0.97 h. The “flavopiridol clearance, previously reported” value in data set [3] was 13.8 L/hr/m^2. Also, the “binding to human serum proteins” value in data set [4] was “bind tightly”. Also, the ABCG2 substrate status entry in data set [5] is listed as “substrate”.

For the compound `Cc1ccc(NC(=O)c2ccc(CN3CCN(C)CC3)cc2)cc1Nc1nccc(-c2cccnc2)n1` [imatinib], the “Plasma concentration, effect of flavopiridol” value in data set [1] was “did not affect”. Moreover, the “AUC of imatinib, lower in the presence of flavopiridol” value in data set [1] (on average, presence vs absence of flavopiridol, p=0.022) was found to be 21%. Moreover, the ABCG2 inhibition result in data set [5] is listed as “inhibitor”.

One may read the clearance as the rate of elimination divided by the concentration. High values mean a high capacity for elimination, low ones a low capacity for elimination. As a reminder, the half-life is how long it takes for the measured level to halve. Read a low half-life as rapid decline.
